Assay results taken from ChEMBL document CHEMBL1909608, “Actinopolysporins A-C and tubercidin as a Pdcd4 stabilizer from the halophilic actinomycete Actinopolyspora erythraea YIM 90600” (J Nat Prod, 2011).
The source made the active and inactive calls. No cut-off for these calls is given here.

Assays:
Assay type in all cases: cell-based
[1] = target: T1, Programmed cell death protein 4 (Homo sapiens) (UniProt Q53EL6); assay: Stabilization of Pdcd4 expressed in human HEK293 cells assessed as inhibition of TPA-induced degradation by luciferase reporter assay
T1 sequence (whole entry): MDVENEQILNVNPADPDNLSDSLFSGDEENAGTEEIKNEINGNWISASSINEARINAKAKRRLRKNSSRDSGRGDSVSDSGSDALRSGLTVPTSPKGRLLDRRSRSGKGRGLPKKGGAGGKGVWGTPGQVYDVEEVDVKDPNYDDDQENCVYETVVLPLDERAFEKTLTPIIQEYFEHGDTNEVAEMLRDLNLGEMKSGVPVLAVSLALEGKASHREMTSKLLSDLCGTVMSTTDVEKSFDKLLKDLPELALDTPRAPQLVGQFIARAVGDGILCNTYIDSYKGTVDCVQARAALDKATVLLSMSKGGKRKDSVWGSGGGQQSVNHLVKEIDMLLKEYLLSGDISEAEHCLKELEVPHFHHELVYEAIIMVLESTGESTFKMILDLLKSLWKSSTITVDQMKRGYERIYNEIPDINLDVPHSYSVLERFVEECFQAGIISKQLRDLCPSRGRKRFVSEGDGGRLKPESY

[2] = system: HEK293; assay: Cytotoxicity against human HEK293 cells
[3] = target: T1, Programmed cell death protein 4 (Homo sapiens); assay: Stabilization of Pdcd4 expressed in TPA-stimulated human HEK293 cells at 2.5 uM by luciferase reporter assay

In the case of `CCC(=O)/C(C)=C/C(C)CC(C)CC(C)(O)CC` (stereo not given), the inhibition [1] was “inactive”.
In the case of `COC(=O)/C(C)=C/C(C)CC(C)CC(C)(O)C(C)O` (stereo not given), the inhibition [1] was “inactive”.
Work on `Nc1ncnc2c1ccn2[C@@H]1O[C@H](CO)[C@@H](O)[C@H]1O` [TUBERCIDIN] yielded an Activity [2] greater than 2.5 µM and a max activation [3] of 94.2%.
For `COC(=O)/C(C)=C/C(C)CC(C)CC(C)(O)CC(C)O` (stereo not given), the inhibition [1] was “inactive”.
